Paper PMC10986521 (Microbiology Spectrum, 2024)

Columns and labels:
[1] = biological target: T1, FMDV 3Cpro (Foot-and-mouth disease virus A, UniProt A0A097I315); assay: biochemical; set-up: species or system FMDV A/IND287/96 strain (serotype A); details: FRET assay (IC50)
[2] = biological target: T1, FMDV 3Cpro; assay: cell-based; set-up: species or system FMDV A/IND287/96 strain; details: Cell-based assay (EC50)
[3] = in vitro; details: human

| SMILES | IC50 [1] [µM] | EC50 [2] [µM] | CC50 [3] [µM] |
| --- | --- | --- | --- |
| [2H]C([2H])(OC(=O)N[C@@H](CC(C)C)C(=O)N[C@@H](C[C@@H]1CCNC1=O)C(O)S(=O)(=O)[O-])C(C)(C)Sc1ccccc1.[Na+] (some centres unmarked) [Compound D2d] | 1.15 ± 0.07 | 2.91 ± 0.43 | > 50 |
| CC(C)C[C@H](NC(=O)OCC(C)(C)[S+]([O-])c1ccccc1)C(=O)N[C@H](C=O)C[C@@H]1CCNC1=O (some centres unmarked) [Compound D3c] | 1.14 ± 0.08 | > 10 | > 50 |
| CC(C)C[C@H](NC(=O)OC[C@@H]1C[C@H]1C1CCCCC1)C(=O)N[C@H](C=O)C[C@H]1CCNC1=O [Compound C15c] | 0.38 ± 0.11 | 0.45 ± 0.05 | > 50 |
| [2H]C([2H])(OC(=O)N[C@@H](CC(C)C)C(=O)N[C@@H](C[C@@H]1CCNC1=O)C(O)S(=O)(=O)[O-])C(C)(C)Oc1cccc(Cl)c1.[Na+] (some centres unmarked) [Compound D14d] | 0.65 ± 0.07 | 4.81 ± 3.06 | > 50 |
| CC(C)C[C@H](NC(=O)[C@H](Cc1cccc2ccccc12)NC(=O)OCc1ccccc1)C(=O)N[C@@H](C[C@@H]1CCNC1=O)C(=O)C(=O)NC(C)C [Compound E6] | 0.06 ± 0.06 | 0.15 ± 0.07 | > 50 |
| [2H]C([2H])(OC(=O)N[C@@H](CC(C)C)C(=O)N[C@H](C=O)C[C@@H]1CCNC1=O)C(C)(C)Oc1cccc(Cl)c1 [Compound D14c] | 0.5 ± 0.14 | 3.38 ± 0.39 | > 50 |
| CC(C)C[C@H](NC(=O)OCC(C)(C)Oc1ccc(Cl)cc1)C(=O)N[C@@H](C[C@@H]1CCNC1=O)C(O)S(=O)(=O)O (some centres unmarked) [Compound D11d] | 0.49 ± 0.05 | 0.98 ± 1.11 | > 50 |
| CC(C)C[C@H](NC(=O)[C@H](Cc1cccc2ccccc12)NC(=O)OCc1ccccc1)C(=O)N[C@H](C=O)C[C@@H]1CCNC1=O [Compound E1] | 0.05 ± 0.08 | 0.11 ± 0.05 | > 50 |
| COc1ccccc1[C@@H]1C[C@@H]1COC(=O)N[C@@H](CC(C)C)C(=O)N[C@@H](C[C@H]1CCNC1=O)C(O)S(=O)(=O)O (some centres unmarked) [Compound C12d] | 0.51 ± 0.06 | 1.25 ± 0.07 | > 50 |
| CC(C)C[C@H](NC(=O)OCC(C)(C)Oc1cccc(Cl)c1)C(=O)N[C@H](C=O)C[C@@H]1CCNC1=O [Compound D13c] | 0.67 ± 0.08 | 5.34 ± 1.19 | > 50 |
| CC(C)C[C@H](NC(=O)OC[C@@H]1C[C@H]1c1cccc(F)c1)C(=O)N[C@@H](C[C@H]1CCNC1=O)C(O)S(=O)(=O)O (some centres unmarked) [Compound C5d] | 0.95 ± 0.22 | 1.89 ± 0.09 | > 50 |
| CCC[C@@H]1C[C@H]1COC(=O)N[C@@H](CC(C)C)C(=O)N[C@@H](C[C@H]1CCNC1=O)C(O)S(=O)(=O)O (some centres unmarked) [Compound C13d] | 0.75 ± 0.07 | 3.1 ± 0.42 | > 50 |
| CC(C)C[C@H](NC(=O)OC[C@@H]1C[C@H]1Cc1ccccc1)C(=O)N[C@H](C=O)C[C@H]1CCNC1=O [Compound C3c] | 0.69 ± 0.13 | 2.74 ± 2.14 | > 50 |
| CCC[C@@H]1C[C@@H]1COC(=O)N[C@@H](CC(C)C)C(=O)N[C@@H](C[C@H]1CCNC1=O)C(O)S(=O)(=O)O (some centres unmarked) [Compound C14d] | 1.05 ± 0.64 | 6.3 ± 0.85 | > 50 |
| CC(C)C[C@H](NC(=O)OCC(C)(O)c1cccc(Cl)c1)C(=O)N[C@H](C=O)C[C@@H]1CCNC1=O (some centres unmarked) [Compound D17c] | 2 ± 0.71 |  | > 50 |
| CC(C)C[C@H](NC(=O)OCCSc1ccccc1)C(=O)N[C@@H](C[C@@H]1CCNC1=O)C(O)S(=O)(=O)O (some centres unmarked) [Compound D8d] | 1.03 ± 0.24 | 1.95 ± 0.22 | > 50 |
| CC(C)C[C@H](NC(=O)OCC(C)(C)Oc1ccc(Cl)cc1)C(=O)N[C@H](C=O)C[C@@H]1CCNC1=O [Compound D11c] | 0.69 ± 0.06 | 0.64 ± 0.15 | > 50 |
| [2H]C([2H])(OC(=O)N[C@@H](CC(C)C)C(=O)N[C@@H](C[C@@H]1CCNC1=O)C(O)S(=O)(=O)[O-])C(C)(C)Oc1ccc(Cl)cc1.[Na+] (some centres unmarked) [Compound D12d] | 0.19 ± 0.01 | 0.43 ± 0.31 | > 50 |
| CCC[C@@H]1C[C@H]1COC(=O)N[C@@H](CC(C)C)C(=O)N[C@H](C=O)C[C@H]1CCNC1=O [Compound C13c] | 1.55 ± 0.07 | 2.95 ± 0.21 | > 50 |
| CC(C)C[C@H](NC(=O)OC[C@@H]1C[C@H]1c1cccc(Cl)c1)C(=O)N[C@@H](C[C@H]1CCNC1=O)C(O)S(=O)(=O)O (some centres unmarked) [Compound C6d] | 0.58 ± 0.11 | 2.85 ± 0.49 | > 50 |

| SMILES | IC50 [1] [µM] | EC50 [2] [µM] | CC50 [3] [µM] |
| --- | --- | --- | --- |
| CC(C)C[C@H](NC(=O)OC[C@@H]1C[C@H]1C1CCCCC1)C(=O)N[C@@H](C[C@H]1CCNC1=O)C(O)S(=O)(=O)O (some centres unmarked) [Compound C15d] | 0.29 ± 0.08 | 0.5 ± 0.11 | > 50 |
| CC(C)C[C@H](NC(=O)OC[C@@H]1C[C@H]1c1ccc(Cl)cc1)C(=O)N[C@H](C=O)C[C@H]1CCNC1=O [Compound C8c] | 1.15 ± 0.08 |  | > 50 |
| CC(C)C[C@H](NC(=O)OCC(C)(C)Sc1cccc(F)c1)C(=O)N[C@@H](C[C@@H]1CCNC1=O)C(O)S(=O)(=O)O (some centres unmarked) [Compound D5d] | 0.81 ± 0.07 |  | > 50 |
| COc1ccccc1[C@@H]1C[C@H]1COC(=O)N[C@@H](CC(C)C)C(=O)N[C@@H](C[C@H]1CCNC1=O)C(O)S(=O)(=O)O (some centres unmarked) [Compound C11d] | 0.45 ± 0.13 | 1.02 ± 0.17 | > 50 |
| CC(C)C[C@H](NC(=O)OC[C@@H]1C[C@H]1C1CCC(F)(F)CC1)C(=O)N[C@@H](C[C@H]1CCNC1=O)C(O)S(=O)(=O)O (some centres unmarked) [Compound C17d] | 0.75 ± 0.09 | > 10 | > 50 |
| CC(C)C[C@H](NC(=O)OCC(C)(C)Sc1ccccc1)C(=O)N[C@H](C#N)C[C@@H]1CCNC1=O [Compound D1f] | > 25 | > 10 | > 50 |
| CC(C)C[C@H](NC(=O)OCC(C)(C)Sc1nc2ccccc2[nH]1)C(=O)N[C@@H](C[C@@H]1CCNC1=O)C(O)S(=O)(=O)O (some centres unmarked) [Compound D9d] | 1.75 ± 0.92 | > 10 | > 50 |
| CC(C)C[C@H](NC(=O)OCc1ccccc1)C(=O)N[C@@H](C[C@@H]1CCNC1=O)C(=O)C(=O)NC1CCCCC1 [Compound E6e] | 2.8 ± 0.1 |  | > 50 |
| CC(C)C[C@H](NC(=O)OC[C@@H]1C[C@H]1c1ccc(Cl)cc1)C(=O)N[C@@H](C[C@H]1CCNC1=O)C(O)S(=O)(=O)O (some centres unmarked) [Compound C8d] | 0.55 ± 0.07 |  | > 50 |
| CCC[C@@H]1C[C@@H]1COC(=O)N[C@@H](CC(C)C)C(=O)N[C@H](C=O)C[C@H]1CCNC1=O [Compound C14c] | 0.63 ± 0.1 | 7.05 ± 0.78 | > 50 |
| CC(C)C[C@H](NC(=O)OC[C@@H]1C[C@H]1c1cccc(F)c1)C(=O)N[C@H](C=O)C[C@H]1CCNC1=O [Compound C5c] | 1.05 ± 0.21 | 2.13 ± 0.49 | > 50 |
| CC(C)C[C@H](NC(=O)OCC(C)(C)Oc1cccc(F)c1)C(=O)N[C@@H](C[C@@H]1CCNC1=O)C(O)S(=O)(=O)O (some centres unmarked) [Compound D16d] | 0.69 ± 0.02 | 5.05 ± 0.21 | > 50 |
| COc1ccccc1[C@@H]1C[C@@H]1COC(=O)N[C@@H](CC(C)C)C(=O)N[C@H](C=O)C[C@H]1CCNC1=O [Compound C12c] | 0.5 ± 0.14 | 0.88 ± 0.25 | > 50 |
| CC(C)C[C@H](NC(=O)OCC(C)(C)Oc1cccc(F)c1)C(=O)N[C@H](C=O)C[C@@H]1CCNC1=O [Compound D16c] | 0.78 ± 0.03 | 4.9 ± 0.37 | > 50 |
| CC(C)C[C@H](NC(=O)OCC(C)(C)Oc1ccc(F)cc1)C(=O)N[C@H](C=O)C[C@@H]1CCNC1=O [Compound D15c] | 0.45 ± 0.07 | 5.25 ± 0.64 | > 50 |
| CC(C)C[C@H](NC(=O)OCC(C)(C)Oc1ccccc1)C(=O)N[C@@H](C[C@@H]1CCNC1=O)C(O)S(=O)(=O)O (some centres unmarked) [Compound D10d] | 0.7 ± 0.28 |  | > 50 |
| CC(C)C[C@H](NC(=O)OCC(C)(C)Oc1ccccc1)C(=O)N[C@H](C=O)C[C@@H]1CCNC1=O [Compound D10c] | 0.74 ± 0.08 |  | > 50 |
| CC(C)C[C@H](NC(=O)OCc1ccccc1)C(=O)N[C@@H](C[C@@H]1CCNC1=O)C(=O)C(=O)NC(C)C [Compound E6a] | 3.9 ± 0.2 |  | > 50 |
| CC(C)C[C@H](NC(=O)OCC(C)(O)c1cccc(Cl)c1)C(=O)N[C@@H](C[C@@H]1CCNC1=O)C(O)S(=O)(=O)O (some centres unmarked) [Compound D17d] | 0.9 ± 0.28 |  | > 50 |
| CC(C)C[C@H](NC(=O)OC[C@H]1[C@H](Cc2ccccc2)C1(F)F)C(=O)N[C@H](C=O)C[C@H]1CCNC1=O [Compound C4c] | 0.82 ± 0.15 |  | > 50 |
